Patent publication US20040077754A1, “Dental materials based on acrylic-ester phosphonic acids” (priority 2002, published 2004)

Settings: 20% solution in D2O/EtOH-d6 (1:1), stabilized with 200 ppm 2,6-di-tbutyl-4-methylphenol, stored at 37° C., standing time 2 months
Description: In connection with the present invention, compounds which are stable in water or in mixtures of water and water-miscible solvents in a concentration of approx. 20 wt.-% and a pH value of approx. 2.0 at 37° C. for at least 6 weeks, i.e. hydrolyze to less than 1%, are described as hydrolysis-stable.
A 20% solution of MAPA, stabilized with 200 ppm 2,6-di-tbutyl-4-methylphenol, was prepared in D2O/EtOH-d6 (1:1), stored at 37° C. and ^1H-NMR-spectroscopically examined. After a standing time of 2 months, no changes in the ^1H-NMR-spectrum were able to be detected.

C=C(COCCP(=O)(O)O)C(=O)Oc1c(C)cc(C)cc1C [MAPA]
Hydrolysis stability: changes in the 1H-NMR spectrum: no changes
